From patent US11051515B2, “3-acyl-benzamides and their use as herbicides” (Bayer Aktiengesellschaft, priority 2017, dated 2021)

How the values were obtained:
ALOMY = test: Pre-emergence action against ALOMY; format: in vivo, Alopecurus myosuroides; conditions: dosage 320 g/ha, pre-emergence, scored visually after 3 weeks vs untreated controls, 100% = plants have died, 0% = like control plants
Method in brief: (§1)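 Seeds sown in sandy loam in wood-fiber pots and covered with soil. Greenhouse growth; visual damage scored after 3 weeks versus untreated controls (100% = dead, 0% = like control).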

VERPE [1] = test: Post-emergence action against VERPE; format: in vivo, Veronica persica; conditions: dosage 80 g/ha
Method in brief: (§2)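 Post-emergence foliar spray on greenhouse plants at the one-leaf stage, using wettable-powder or emulsion-concentrate formulations in water (600 to […], plus 0.2% wetting agent). Damage scored by eye roughly 3 weeks later against untreated plants: 0% = like control, 100% = dead.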

ABUTH [2] = test: Pre-emergence action against ABUTH; format: in vivo, Abutilon theophrasti; conditions: pre-emergence, dosage 320 g/ha, scored visually after 3 weeks vs untreated controls
Method in brief: as §1

AVEFA = test: Pre-emergence action against AVEFA; format: in vivo, Avena fatua; conditions: dosage 320 g/ha, scored visually after 3 weeks vs untreated controls
Method in brief: as §1

VERPE [3] = test: Pre-emergence action against VERPE; format: in vivo, Veronica persica; conditions: Dosage 320 g/ha, pre-emergence
Method in brief: as §1

MATIN [4] = test: Pre-emergence action against MATIN; format: in vivo, Matricaria inodora; conditions: Dosage 320 g/ha, pre-emergence
Method in brief: as §1

VIOTR [5] = test: Post-emergence action against VIOTR; format: in vivo, Viola tricolor; conditions: post-emergence, dosage 80 g/ha
Method in brief: as §2

POLCO [6] = test: Post-emergence action against POLCO; format: in vivo, Polygonum convolvulus; conditions: post-emergence, dosage 80 g/ha
Method in brief: as §2

ECHCG [7] = test: Post-emergence action against ECHCG; format: in vivo, Echinochloa crus-galli; conditions: post-emergence, dosage 80 g/ha, visual assessment about 3 weeks after treatment vs untreated controls
Method in brief: as §2

STEME [8] = test: Pre-emergence action against STEME; format: in vivo, Stellaria media; conditions: Dosage 320 g/ha, pre-emergence
Method in brief: as §1

AMARE [9] = test: Pre-emergence action against AMARE; format: in vivo, Amaranthus retroflexus; conditions: pre-emergence, dosage 320 g/ha, scored visually after 3 weeks vs untreated controls
Method in brief: as §1

CYPES [10] = test: Post-emergence action against CYPES; format: in vivo, Cyperus esculentus; conditions: post-emergence, dosage 80 g/ha, visual assessment about 3 weeks after treatment vs untreated controls
Method in brief: as §2

SETVI [11] = test: Pre-emergence action against SETVI; format: in vivo, Setaria viridis; conditions: pre-emergence, dosage 320 g/ha, scored visually after 3 weeks vs untreated controls
Method in brief: as §1

PHBPU [12] = test: Post-emergence action against PHBPU; format: in vivo, Pharbitis purpurea; conditions: post-emergence, dosage 80 g/ha
Method in brief: as §2

STEME [13] = test: Post-emergence action against STEME; format: in vivo, Stellaria media; conditions: post-emergence, dosage 80 g/ha
Method in brief: as §2

ECHCG [14] = test: Pre-emergence action against ECHCG; format: in vivo, Echinochloa crus-galli; conditions: pre-emergence, dosage 320 g/ha, scored visually after 3 weeks vs untreated controls
Method in brief: as §1

ABUTH [15] = test: Post-emergence action against ABUTH; format: in vivo, Abutilon theophrasti; conditions: post-emergence, dosage 80 g/ha, visual assessment about 3 weeks after treatment vs untreated controls
Method in brief: as §2

AMARE [16] = test: Post-emergence action against AMARE; format: in vivo, Amaranthus retroflexus; conditions: post-emergence, dosage 80 g/ha, visual assessment about 3 weeks after treatment vs untreated controls
Method in brief: as §2

LOLMU = test: Pre-emergence action against LOLMU; format: in vivo, Lolium multiflorum; conditions: dosage 320 g/ha, scored visually after 3 weeks vs untreated controls
Text: Seeds of monocotyledonous and dicotyledonous weed plants and crop plants are laid out in sandy loam soil in wood-fiber pots and covered with soil. The compounds of the invention, formulated in the form of wettable powders (WP) or as emulsion concentrates (EC), are then applied to the surface of the covering soil in the form of an aqueous suspension or emulsion at a water application rate equating to […], with addition of 0.2% wetting agent. After the treatment, the pots are placed in a greenhouse and kept under good growth conditions for the trial plants. The damage to the test plants is scored visually after a test period of 3 weeks by comparison with untreated controls (herbicidal activity in percent (%): 100% activity=the plants have died, 0% activity=like control plants).

MATIN [17] = test: Post-emergence action against MATIN; format: in vivo, Matricaria inodora; conditions: post-emergence, dosage 80 g/ha, visual assessment about 3 weeks after treatment vs untreated controls
Method in brief: as §2

POLCO [18] = test: Pre-emergence action against POLCO; format: in vivo, Polygonum convolvulus; conditions: Dosage 320 g/ha, pre-emergence
Method in brief: as §1

CYPES [19] = test: Pre-emergence action against CYPES; format: in vivo, Cyperus esculentus; conditions: pre-emergence, dosage 320 g/ha, scored visually after 3 weeks vs untreated controls
Method in brief: as §1

SETVI [20] = test: Post-emergence action against SETVI; format: in vivo, Setaria viridis; conditions: post-emergence, dosage 80 g/ha, visual assessment about 3 weeks after treatment vs untreated controls
Method in brief: as §2

VIOTR [21] = test: Pre-emergence action against VIOTR; format: in vivo, Viola tricolor; conditions: Dosage 320 g/ha, pre-emergence
Method in brief: as §1

PHBPU [22] = test: Pre-emergence action against PHBPU; format: in vivo, Pharbitis purpurea; conditions: Dosage 320 g/ha, pre-emergence
Method in brief: as §1

SMILES: CCn1nnnc1NC(=O)c1ccc(C(F)(F)F)c(C(C)=O)c1Cl [2-137, 3-acetyl-2-chloro-N-(1-ethyl-1H-tetrazol-5-yl)-4-(trifluoromethyl)benzamide]
- pest or weed control at 320 g/ha (ALOMY; Alopecurus myosuroides, 504 h, read-out: Pre-emergence action against ALOMY (herbicidal activity in percent)): 90%
- pest or weed control at 80 g/ha (VERPE [1]; Veronica persica, 504 h): 90%
- pest or weed control at 320 g/ha (ABUTH [2]; Abutilon theophrasti, 504 h, read-out: Pre-emergence action against ABUTH (herbicidal activity)): 100%
- pest or weed control at 320 g/ha (AVEFA; Avena fatua, 504 h, read-out: Pre-emergence action against AVEFA (herbicidal activity)): 90%
- pest or weed control at 320 g/ha (VERPE [3]; Veronica persica, 504 h): 90%
- pest or weed control at 320 g/ha (MATIN [4]; Tripleurospermum inodorum, 504 h): 100%
- pest or weed control at 80 g/ha (VIOTR [5]; Viola tricolor, 504 h): 100%
- pest or weed control at 80 g/ha (POLCO [6]; Fallopia convolvulus, 504 h): 90%
- pest or weed control at 80 g/ha (ECHCG [7]; Echinochloa crus-galli, 504 h, read-out: Post-emergence action against ECHCG (herbicidal action in percent)): 90%
- pest or weed control at 320 g/ha (STEME [8]; Stellaria media, 504 h): 90%
- pest or weed control at 320 g/ha (AMARE [9]; Amaranthus retroflexus, 504 h, read-out: Pre-emergence action against AMARE (herbicidal activity)): 100%
- pest or weed control at 80 g/ha (CYPES [10]; Cyperus esculentus, 504 h, read-out: Post-emergence action against CYPES (herbicidal action in percent)): 90%
- pest or weed control at 320 g/ha (SETVI [11]; Setaria viridis, 504 h, read-out: SETVI (Table B8, pre-emergence herbicidal activity)): 100%
- pest or weed control at 80 g/ha (PHBPU [12]; Ipomoea purpurea, 504 h): 90%
- pest or weed control at 80 g/ha (STEME [13]; Stellaria media, 504 h): 100%
- pest or weed control at 320 g/ha (ECHCG [14]; Echinochloa crus-galli, 504 h, read-out: Pre-emergence action against ECHCG (herbicidal activity)): 100%
- pest or weed control at 80 g/ha (ABUTH [15]; Abutilon theophrasti, 504 h, read-out: Post-emergence action against ABUTH (herbicidal action in percent)): 90%
- pest or weed control at 80 g/ha (AMARE [16]; Amaranthus retroflexus, 504 h, read-out: Post-emergence action against AMARE (herbicidal action in percent)): 100%
- pest or weed control at 320 g/ha (LOLMU; Lolium multiflorum, 504 h, read-out: Pre-emergence action against LOLMU (herbicidal activity)): 80%
- pest or weed control at 80 g/ha (MATIN [17]; Tripleurospermum inodorum, 504 h, read-out: Post-emergence action against MATIN (herbicidal action in percent)): 100%
- pest or weed control at 320 g/ha (POLCO [18]; Fallopia convolvulus, 504 h): 90%
- pest or weed control at 320 g/ha (CYPES [19]; Cyperus esculentus, 504 h, read-out: Pre-emergence action against CYPES (herbicidal activity)): 100%
- pest or weed control at 80 g/ha (SETVI [20]; Setaria viridis, 504 h, read-out: Post-emergence action against SETVI (herbicidal action in percent)): 100%
- pest or weed control at 320 g/ha (VIOTR [21]; Viola tricolor, 504 h): 100%

SMILES: CCn1nnnc1NC(=O)c1ccc(C(F)(F)F)c(C(C)=O)c1SC [2-58]
- Pre-emergence action against ALOMY (herbicidal activity in percent) (ALOMY): 100%
- Post-emergence action against VERPE (VERPE [1]): 100
- Pre-emergence action against ABUTH (herbicidal activity) (ABUTH [2]): 100%
- Pre-emergence action against AVEFA (herbicidal activity) (AVEFA): 90%
- Pre-emergence action against VERPE (VERPE [3]): 100%
- Pre-emergence action against MATIN (MATIN [4]): 100%
- Post-emergence action against VIOTR (VIOTR [5]): 100
- Post-emergence action against POLCO (POLCO [6]): 90
- Post-emergence action against ECHCG (herbicidal action in percent) (ECHCG [7]): 90%
- Pre-emergence action against STEME (STEME [8]): 90%
- Pre-emergence action against AMARE (herbicidal activity) (AMARE [9]): 100%
- Pre-emergence action against PHBPU (PHBPU [22]): 80%
- Post-emergence action against CYPES (herbicidal action in percent) (CYPES [10]): 90%
- SETVI (Table B8, pre-emergence herbicidal activity) (SETVI [11]): 100%
- Post-emergence action against PHBPU (PHBPU [12]): 100
- Post-emergence action against STEME (STEME [13]): 100
- Pre-emergence action against ECHCG (herbicidal activity) (ECHCG [14]): 100%
- Post-emergence action against ABUTH (herbicidal action in percent) (ABUTH [15]): 100%
- Post-emergence action against AMARE (herbicidal action in percent) (AMARE [16]): 100%
- Pre-emergence action against LOLMU (herbicidal activity) (LOLMU): 90%
- Post-emergence action against MATIN (herbicidal action in percent) (MATIN [17]): 100%
- Pre-emergence action against POLCO (POLCO [18]): 100%
- Pre-emergence action against CYPES (herbicidal activity) (CYPES [19]): 100%
- Post-emergence action against SETVI (herbicidal action in percent) (SETVI [20]): 100%
- Pre-emergence action against VIOTR (VIOTR [21]): 100%
